Source: patent US20140255392A1 (BAYER INTELLECTUAL PROPERTY GMBH, priority 2011, published 2014)

The molecules below were run against T1, human kinase Mps-1 (Homo sapiens, UniProt P33981) (assay: Mps-1 kinase assay (TR-FRET)). Details: N-terminally GST-tagged human full length recombinant Mps-1; 10 μM ATP; 1 μM peptide substrate; 60 min at 22° C.
T1 construct: N-terminally GST-tagged human full length recombinant Mps-1 kinase; GST (N); purchased Invitrogen, Karslruhe, Germany PV4071
T1 sequence (P33981 1-857): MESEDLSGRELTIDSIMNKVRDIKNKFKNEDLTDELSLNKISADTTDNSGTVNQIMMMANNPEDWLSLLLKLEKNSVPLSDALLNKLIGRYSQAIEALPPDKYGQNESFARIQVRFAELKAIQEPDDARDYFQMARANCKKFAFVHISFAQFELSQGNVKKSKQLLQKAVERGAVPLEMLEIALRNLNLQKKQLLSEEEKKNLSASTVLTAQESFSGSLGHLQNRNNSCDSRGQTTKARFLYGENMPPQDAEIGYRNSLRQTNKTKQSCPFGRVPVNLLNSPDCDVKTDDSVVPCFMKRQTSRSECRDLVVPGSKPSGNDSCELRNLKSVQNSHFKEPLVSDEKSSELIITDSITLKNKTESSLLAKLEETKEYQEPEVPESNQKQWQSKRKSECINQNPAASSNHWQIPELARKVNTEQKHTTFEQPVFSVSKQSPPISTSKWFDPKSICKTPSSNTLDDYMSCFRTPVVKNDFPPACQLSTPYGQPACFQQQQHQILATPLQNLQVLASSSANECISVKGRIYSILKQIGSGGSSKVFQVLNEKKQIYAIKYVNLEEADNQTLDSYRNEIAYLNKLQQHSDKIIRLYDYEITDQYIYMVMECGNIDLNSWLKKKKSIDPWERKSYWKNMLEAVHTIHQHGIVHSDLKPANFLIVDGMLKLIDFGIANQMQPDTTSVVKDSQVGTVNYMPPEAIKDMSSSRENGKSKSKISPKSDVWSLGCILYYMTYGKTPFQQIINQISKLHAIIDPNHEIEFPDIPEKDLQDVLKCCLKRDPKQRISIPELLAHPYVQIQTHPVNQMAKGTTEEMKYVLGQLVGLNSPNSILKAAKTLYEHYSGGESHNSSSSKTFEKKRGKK
Assay type: biochemical
Procedure: The human kinase Mps-1 phosphorylates a biotinylated substrate peptide. Detection of the phosphorylated product is achieved by time-resolved fluorescence resonance energy transfer (TR-FRET) from Europium-labelled anti-phospho-Serine/Threonine antibody as donor to streptavidin labelled with cross-linked allophycocyanin (SA-XLent) as acceptor. Compounds are tested for their inhibition of the kinase activity.
N-terminally GST-tagged human full length recombinant Mps-1 kinase (purchased from Invitrogen, Karslruhe, Germany, cat. no PV4071) was used. As substrate for the kinase reaction a biotinylated peptide of the amino-acid sequence […] (C-terminus in amide form, purchased from Biosynthan GmbH, Berlin) was used.
The concentration of Mps-1 in the assay was adjusted to the activity of the enzyme lot and was chosen appropriate to have the assay in the linear range, typical enzyme concentrations were in the range of about 1 nM (final conc. in the 5 μl assay volume).
The resulting mixture was incubated 1 h at 22° C. to allow the binding of the phosphorylated peptide to the anti-phospho(Ser/Thr)-Europium-antibody. Subsequently the amount of phosphorylated substrate was evaluated by measurement of the resonance energy transfer from the Europium-labelled anti-phospho(Ser/Thr) antibody to the Streptavidin-XLent.
Molecule `COCCNc1cc(Oc2cccc(F)c2)cn2c(-c3ccc(C(=O)NC4CC4)c(C)c3)cnc12` [Example 169, N-cyclopropyl-4-{6-(3-fluorophenoxy)-8-[(2-methoxyethyl)amino]imidazo[1,2-a]pyridin-3-yl}-2-methylbenzamide] has an IC50 of 21.7 nM.
Work on `COc1ccc(Oc2cc(NCC(F)F)c3ncc(-c4ccc(C(=O)NC5CC5)c(C)c4)n3c2)cc1F` [Example 167, N-cyclopropyl-4-{8-[(2,2-difluoroethyl)amino]-6-(3-fluoro-4-methoxyphenoxy)imidazo[1,2-a]pyridin-3-yl}-2-methylbenzamide] yielded an IC50 of 6.2 nM.
With `Cc1cc(-c2cnc3c(NCCC(F)(F)F)cc(Oc4cccc(F)c4F)cn23)ccc1C(=O)NC1CC1` [Example 30, N-cyclopropyl-4-{6-(2,3-difluorophenoxy)-8-[(3,3,3-trifluoropropyl)amino]imidazo[1,2-a]pyridin-3-yl}-2-methylbenzamide] the IC50 was 0.4 nM.
With `Cc1ccc(F)cc1Oc1cc(NCCC(F)(F)F)c2ncc(-c3ccc(C(=O)N[C@H]4C[C@@H]4F)c(C)c3)n2c1` (relative stereo) [Example 29, N-[rel-(1S,2S)-2-fluorocyclopropyl]-4-{6-(5-fluoro-2-methylphenoxy)-8-[(3,3,3-trifluoropropyl)amino]imidazo[1,2-a]pyridin-3-yl}-2-methylbenzamide] the IC50 was 1.3 nM.
Molecule `C#Cc1cc(NCCC(F)(F)F)c2ncc(-c3ccc(C(=O)N[C@@H]4C[C@H]4F)c(C)c3)n2c1` (relative stereo) [Example 16, 4-{6-ethynyl-8-[(3,3,3-trifluoropropyl)amino]imidazo[1,2-a]pyridin-3-yl}-N-[rel-(1R,2R)-2-fluorocyclopropyl]-2-methylbenzamide] has an IC50 of 29.4 nM.
`Cc1cc(-c2cnc3c(NCCC(F)(F)F)cc(Oc4ccc(O)cc4)cn23)ccc1C(=O)NC1CC1` [Example 110, N-cyclopropyl-4-{6-(4-hydroxyphenoxy)-8-[(3,3,3-trifluoropropyl)amino]imidazo[1,2-a]pyridin-3-yl}-2-methylbenzamide] showed an IC50 of 0.6 nM.
`COc1ncc(Oc2cc(NCCC(F)(F)F)c3ncc(-c4ccc(C(=O)NC5CC5)c(C)c4)n3c2)cc1F` [Example 178, N-cyclopropyl-4-{6-[(5-fluoro-6-methoxypyridin-3-yl)oxy]-8-[(3,3,3-trifluoropropyl)amino]imidazo[1,2-a]pyridin-3-yl}-2-methylbenzamide] was tested, and the IC50 was 2.2 nM.
`COc1ccc(Oc2cc(NCCC(F)(F)F)c3ncc(-c4ccc(C(=O)NC5CC5)c(C)c4)n3c2)cc1F` [Example 42, N-cyclopropyl-4-{6-(3-fluoro-4-methoxyphenoxy)-8-[(3,3,3-trifluoroprorwl)amino]imidazo[1,2-a]pyridin-3-yl}-2-methylbenzamide] gave an IC50 of 0.4 nM.
With `Cc1cc(-c2cnc3c(NCCC(F)(F)F)cc(Oc4cccc(F)c4)cn23)ccc1C(=O)NC1(C)CC1` [Example 11, 4-{6-(3-Fluorophenoxy)-8-[(3,3,3-trifluoropropyl)amino]imidazo[1,2-a]pyridin-3-yl}-2-methyl-N-(1-methylcyclopropyl)benzamide] the IC50 was 3.8 nM.
Work on `CNC(=O)c1ccc(-c2cnc3c(NCCC(F)(F)F)cc(Oc4ccc(OC(F)(F)F)cc4)cn23)cc1C` [Example 67, N,2-dimethyl-4-{6-[4-(trifluoromethoxy)phenoxy]-8-[(3,3,3-trifluoropropyl)amino]imidazo[1,2-a]pyridin-3-yl}benzamide] yielded an IC50 of 72.8 nM.
`Cc1cc(-c2cc(NCC3CCOCC3)c3ncc(-c4ccc(C(=O)NC5CC5)c(C)c4)n3c2)ccc1C(=O)NC1CC1` [Example 9, 4,4′-{8-[(Tetrahydro-2H-pyran-4-ylmethyl)amino]imidazo[1,2-a]pyridine-3,6-diyl}bis(N-cyclopropyl-2-methylbenzamide)] was tested, and the IC50 was 0.4 nM.
With `Cc1cc(-c2cnc3c(NCCC(F)(F)F)cc(Oc4cccc(Cl)c4)cn23)ccc1C(=O)N[C@@H]1C[C@H]1F` (relative stereo) [Example 39 (rac.-A), 4-{6-(3-chlorophenoxy)-8-[(3,3,3-trifluoropropyl)amino]imidazo[1,2-a]pyridin-3-yl}-N-[rel-(1R,2R)-2-fluorocyclopropyl]-2-methylbenzamide] the IC50 was 3.1 nM.
`CNC(=O)c1ccc(-c2cnc3c(NCCC(F)(F)F)cc(Oc4ccc(OC(F)(F)F)c(F)c4)cn23)cc1C` [Example 86, 4-{6-[3-Fluoro-4-(trifluoromethoxy)phenoxy]-8-[(3,3,3-trifluoropropyl)amino]imidazo[1,2-a]pyridin-3-yl}-N,2-dimethylbenzamide] showed an IC50 of 56.7 nM.
`Cc1cc(-c2cnc3c(NCCC(F)(F)F)cc(-c4ccc(C(=O)NC5(CO)CC5)c(C)c4)cn23)ccc1C(=O)NC1CC1` [Example 151, 4-{3-[4-(cyclopropylcarbamoyl)-3-methylphenyl]-8-[(3,3,3-trifluoropropyl)amino]imidazo[1,2-a]pyridin-6-yl}-N-[1-(hydroxymethyl)cyclopropyl]-2-methylbenzamide] showed an IC50 of 2.6 nM.
`C=Cc1cc(NCCC(F)(F)F)c2ncc(-c3ccc(C(=O)NC4(C#N)CC4)c(C)c3)n2c1` [Example 96, N-(1-cyanocyclopropyl)-2-methyl-4-{8-[(3,3,3-trifluoropropyl)amino]-6-vinylimidazo[1,2-a]pyridin-3-yl}benzamide] gave an IC50 of 123 nM.
Work on `Cc1cc(-c2cnc3c(NCCC(F)(F)F)cc(Oc4cccc(F)c4O)cn23)ccc1C(=O)NC1CC1` [Example 176, N-cyclopropyl-4-{6-(3-fluoro-2-hydroxyphenoxy)-8-[(3,3,3-trifluoropropyl)amino]imidazo[1,2-a]pyridin-3-yl}-2-methylbenzamide] yielded an IC50 of 1.8 nM.
`CCNC(=O)c1ccc(-c2cnc3c(NCCC(F)(F)F)cc(Oc4cccc(OC(F)(F)F)c4)cn23)cc1C` [Example 77, N-ethyl-2-methyl-4-{6-[3-(trifluoromethoxy)phenoxy]-8-[(3,3,3-trifluoropropyl)amino]imidazo[1,2-a]pyridin-3-yl}benzamide] was tested, and the IC50 was 51 nM.
Molecule `CNC(=O)c1ccc(-c2cnc3c(NCCC(F)(F)F)cc(-c4ccccc4OC)cn23)cc1C` [Example 81, 4-{6-(2-Methoxyphenyl)-8-[(3,3,3-trifluoropropyl)amino]imidazo[1,2-a]pyridin-3-yl}-N,2-dimethylbenzamide] has an IC50 of 19.8 nM.
With `Cc1cc(-c2cnc3c(NCCC(F)(F)F)cc(Oc4ccccc4)cn23)ccc1C(=O)NC1CC1` [Example 33, N-cyclopropyl-2-methyl-4-{6-phenoxy-8-[(3,3,3-trifluoropropyl)amino]imidazo[1,2-a]pyridin-3-yl}benzamide] the IC50 was 0.7 nM.
`Cc1cc(-c2cnc3c(NCCC(F)(F)F)cc(Oc4cccc(F)c4)cn23)ccc1C(=O)NC1(C#N)CC1` [Example 13, N-(1-cyanocyclopropyl)-4-{6-(3-fluorophenoxy)-8-[(3,3,3-trifluoropropyl)amino]imidazo[1,2-a]pyridin-3-yl}-2-methylbenzamide] showed an IC50 of 11.1 nM.
`CCNC(=O)c1ccc(-c2cnc3c(NCCC(F)(F)F)cc(Oc4cccc(F)c4F)cn23)cc1C` [Example 73, 4-{6-(2,3-Difluorophenoxy)-8-[(3,3,3-trifluoropropyl)amino]imidazo[1,2-a]pyridin-3-yl}-N-ethyl-2-methylbenzamide] was tested, and the IC50 was 1.2 nM.
`COc1cccc(Oc2cc(NCCC(F)(F)F)c3ncc(-c4ccc(C(=O)NC5CC5)c(C)c4)n3c2)c1` [Example 52, N-cyclopropyl-4-{6-(3-methoxyphenoxy)-8-[(3,3,3-trifluoropropyl)amino]imidazo[1,2-a]pyridin-3-yl}-2-methylbenzamide] showed an IC50 of 0.9 nM.
Molecule `CNC(=O)c1ccc(-c2cnc3c(NCCC(F)(F)F)cc(Oc4cccc(F)c4)cn23)cc1C` [Example 8, 4-{6-(3-Fluorophenoxy)-8-[(3,3,3-trifluoropropyl)amino]imidazo[1,2-a]pyridin-3-yl}-N,2-dimethylbenzamide] has an IC50 of 3.4 nM.
`CNC(=O)c1ccc(-c2cnc3c(NCCC(F)(F)F)cc(Oc4cc(F)ccc4C)cn23)cc1C` [Example 25, 4-{6-(5-Fluoro-2-methylphenoxy)-8-[(3,3,3-trifluoropropyl)amino]imidazo[1,2-a]pyridin-3-yl}-N,2-dimethylbenzamide] showed an IC50 of 2.9 nM.
